{"source": "patent US5331006A", "about": "“Amino acid analogs as CCK antagonists” (Warner-Lambert Company, priority 1991, dated 1994)", "data": [{"target": "T1, CCK receptor sites (Mus musculus, UniProt P56481)", "T1 construct": "from tissue; host or cells: cerebral cortex membranes of male CFLP mice", "T1 sequence (P56481 1-453)": "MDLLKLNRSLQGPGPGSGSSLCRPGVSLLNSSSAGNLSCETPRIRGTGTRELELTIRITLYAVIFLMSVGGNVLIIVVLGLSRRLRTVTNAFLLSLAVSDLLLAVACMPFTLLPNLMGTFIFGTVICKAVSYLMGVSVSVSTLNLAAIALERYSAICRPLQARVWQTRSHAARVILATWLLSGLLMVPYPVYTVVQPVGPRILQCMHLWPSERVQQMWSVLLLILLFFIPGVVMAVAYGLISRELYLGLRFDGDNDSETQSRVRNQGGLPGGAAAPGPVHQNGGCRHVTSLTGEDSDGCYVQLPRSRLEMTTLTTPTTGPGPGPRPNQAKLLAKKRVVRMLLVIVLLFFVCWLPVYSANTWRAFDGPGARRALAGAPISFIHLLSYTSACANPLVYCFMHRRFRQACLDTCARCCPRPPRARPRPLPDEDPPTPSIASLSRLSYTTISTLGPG", "experiment": "CCK receptor binding, displacement of tritiated pentagastrin from mouse cerebral cortex membranes", "conditions": "2 nM tritiated pentagastrin, mouse cerebral cortical membranes; Ki from IC50 by Cheng-Prusoff; read-out: Ki", "experimental": "The biological activity of compounds of the present invention was evaluated employing an initial screening test which rapidly and accurately measured the binding of the tested compound to known CCK receptor sites. […] (See Hays, et al, Neuropeptides 1:53-62, 1980; and Satuer, et al, Science 208:1155-1156, 1980.)\nIn this screening test the cerebral cortices taken from male CFLP mice weighing between 30 to 40 g were dissected on ice, weighed, and homogenized in 10 volumes of 50 mM Tris-HCl buffer (pH 7.4 at 0° to 4° C.). The resulting suspension was centrifuged, the supernate was discarded, and the pellet was washed by resuspension in Tris-HCl buffer followed by recentrifugation. The final pellet was resuspended in 20 volumes of […] Hepes buffer (pH 7.2 at 23° C.) containing 130 mM NaCl, […] KCl, […] MgCl2, […] EDTA, 5 mg/mL bovine albumin, and bacitracin (0.25 mg/mL).\nIn saturation studies, cerebral cortical membranes were incubated at 23° C. for 120 minutes in a final volume of 500 μL of Hepes incubation buffer (pH 7.2) together with 0.2-20 nM tritiated-pentagastrin (Amersham International, England).\nIn the displacement experiments, membranes were incubated with a single concentration (2 nM) of ligand, together with increasing concentrations of competitive test compound. In each case, the nonspecific binding was defined as that persisting in the presence of the unlabeled octapeptide CCK26-33 (10^-6 M).\nFollowing incubation, radioactivity bound to membranes was separated from that free in solution by rapid filtration through Whatman GF/B filters and washed three times with 4 mL of ice cold Tris-HCl buffer. Filters from samples incubated with tritiated pentagastrin were placed in polyethylene vials with 4 mL of scintillation cocktail, and the radioactivity was estimated by liquid scintillation spectrometry (efficiency 47% to 52%).\nThe specific binding to CCK receptor sites was defined as the total bound tritiated pentagastrin minus the amount of tritiated pentagastrin bound in the presence of 10^-6 octapeptide, CCK26-33.\nSaturation curves for specific tritiated pentagastrin binding to mouse cortical membranes were analyzed by the methods of Scatchard (Ann. New York Acad. Sci. 51:660-672, 1949; Hill, J. Physiol. 40:IV-VIII, 1910) to provide estimates for the maximum number of binding sites (βmax)and the equilibrium dissociation constant (Ka).\nIn displacement experiments, inhibition curves were analyzed by either logit-log plots or the iterative curve fitting computer program ALLFIT (DeLean, Munson, and Redbard, 1978) to provide estimates of the IC50 and nH (apparent Hill coefficient) values). IC50 values were defined as the concentration of test compound required to produce 50% inhibition of specific binding).\nThe inhibition constant (Ki) of the test compound was then calculated according to the Cheng-Prusoff equation: [formula] where [L] is the concentration of radiolabel and Ka is the equilibrium dissociation constant.\nThe Ki values for several representative compounds of the present invention are present in Table II.", "units": {"Ki": "nM"}, "values": [{"molecule": "CC(Cc1cccc2ccccc12)(NC(=O)OC1C2CC3CC(C2)CC1C3)C(=O)NC(CO)Cc1ccccc1", "note": "(stereo not shown) [drawing 26]", "Ki": 14}, {"molecule": "CC(Cc1ccc2ccccc2n1)(NC(=O)OC1C2CC3CC(C2)CC1C3)C(=O)NCC(NC(=O)CCC(=O)O)c1ccccc1", "note": "(stereo not shown)", "Ki": 290}, {"molecule": "CC(Cc1ccccn1)(NC(=O)OC1C2CC3CC(C2)CC1C3)C(=O)NC(CO)Cc1ccccc1", "note": "(single isomer, unassigned) [drawing 14 (Diast I)]", "Ki": 1000}, {"molecule": "CC(Cc1cc2c3ccccc3n(S(C)(=O)=O)c2cn1)(NC(=O)OC1C2CC3CC(C2)CC1C3)C(=O)NCCc1ccccc1", "note": "(stereo not shown)", "Ki": 1990}]}]}
